Data published in patent US20150057354A1, “METHOD OF MAINTAINING OR IMPROVING TACTICAL PERFORMANCE AND COGNITIVE FUNCTION THROUGH DIETARY SUPPLEMENTATION” (Natural Alternatives International, Inc., priority 2013, published 2015).
Read-outs that look alike come from different tables or passages of the source.

Experiments:
[1] = for High Running Velocity (>4.4 m · sec^−1): distance run at high velocity; for Low-Moderate Running Velocity (<4.4 m · sec^−1): distance run at low to moderate velocity
Text: Twenty male soldiers from a special operations unit of the Israel Defense Force (IDF) volunteered to participate in this study to examine the effect of 28 days of beta-alanine ingestion on physical, tactical, psychomotor and cognitive performance in military personnel. Following an explanation of all procedures, risks and benefits, each participant provided their informed consent to participate in the study. The Helsinki committee of the IDF Medical Corps approved the research protocol. […] Screening for performance enhancing drug use and additional supplementation was accomplished via a health questionnaire completed during participant recruitment. All participants were from the same unit, but were from three different squads. Volunteers from each squad were randomly assigned to one of two groups. The first group; (BA; 20.1±0.7 years; height: 1.79±0.07 m; weight: 78.3±9.7 kg) consumed 6.0 g of β-alanine per day, while the second group (PL; 20.2±1.1 years; height: 1.80±0.05; weight: 79.6±7.8 kg) consumed 6 g of placebo (rice flour). There were an equal number of participants from each squad that were randomly assigned to either BA or PL.
(§1) Each session required all participants to perform a 4 km run dressed in shorts, T-shirt and running shoes. Immediately following the 4 km run, participants performed five countermovement jumps.
All participants were provided with an individual global positioning system (GPS) that they wore in a vest underneath their shirt. The GPS unit (MinimaxX, V4.3, Catapult Innovations, Victoria, Australia) was positioned in a posterior pocket on the vest situated between the participant's right and left scapula in the upper-thoracic spine region. Information on velocity patterns was recorded during the 4 km run. Peak velocity, mean velocity, distance covered running at slow-moderate speed (<4.44 m·sec-1), distance covered running at high speed (4.44+m·sec-1), and the percent of total distance run at slow-moderate and high speeds were downloaded from the GPS receiver/transmitters. Data was collected at 10 Hz and all analysis was performed with the system software provided by the manufacturer.
(§2) Participants in the supplement group were provided with 2 tablets of sustained-release β-alanine at a dose of 2 g per serving three times per day (total β-alanine intake was 6 g per day) and subjects in the placebo group were provided with an equivalent amount of rice powder. […] Supplementation occurred over a 28 day period.
Data were analyzed using a 2×2 [treatment (BA, PL) X time (pretest, posttest)] mixed factorial ANOVA.

[2] = 30 days, 6 g per day; p=0.048
Protocol: Carnosine content of all participants was assessed by proton magnetic resonance spectroscopy (MRS) in the gastrocnemius muscle. All studies were performed on a 3-T system (Ingenia, Philips Medical Systems, Best, The Netherlands). Single-voxel, STEAM acquisitions of the gastrocnemius medialis muscle of the lower leg were carried out using a transmit-receive (16-channel) coil. In the leg the scan parameters were TR/TM/TE=2000/12/13 ms. Second-order shimming was used giving a full-width-half-maximum line width of approximately 25 Hz in the calf muscle. Water suppression was achieved by applying two bandwidth selective rf pulses. […] The spectra were analyzed using the Philips SpectroView software.
A 1-litre solution of 20 mM L-carnosine (Sigma-Aldrich) in 0.1M potassium phosphate buffer (pH=7.2) was used as an external reference phantom for absolute quantification. […]
The T1, T2 values for the phantom and muscle were taken from Baguet and colleagues (2010). The correction for the coil loading was calculated according to the method previously described (Soher, van Zijl et al. 1996).
Data was analyzed using a 2×2 [treatment (BA, PL) X time (PRE, POST)] repeated measures analysis of variance. […] POST-PRE (A) performance changes were analyzed using an unpaired t test. […] As such, comparisons A carnosine content was analyzed using the non-parametric independent samples median test. […]

[3] = Study 1: vertical jump power (five countermovement jumps) after 4-km run; details: at Post
[4] = for Average Sprint Time / Fatigue rate: Repeat 30-m Sprints
Protocol: (§3) Data collection occurred before (PRE) and following (POST) 30 days of supplementation. During each session participants performed military relevant tasks that included a 2.5 km run, a 1-min sprint, and a 50-m casualty carry. In addition, participants performed repeated 30-m sprints in combat gear (combat vest with ammunition, helmet, and assault rifle). Between each sprint soldiers were tested on marksmanship. Immediately following the final sprint and target shooting, participants performed a 2-min serial subtraction test on the firing range to assess cognitive function under stressful conditions (continuous shooting). These assessments were based upon previously published investigations examining military performance responses during stressful conditions (Nindl, Leone et al. 2002, Harman, Gutekunst et al. 2008).
as §2, with “of (2” for “of 2”, “per serving)” for “per serving”, “powder. Participants were instructed to consume the supplement following their meals with water.” for “powder.”, “occurred every day” for “occurred”, “a 30-day” for “a 28 day”

[5] = 2.5 km run
Text: (§4) Eighteen male soldiers from an elite combat unit volunteered to participate in this double-blind study. […] Screening for performance enhancing drug use and additional supplementation was accomplished via a health questionnaire completed during participant recruitment. Participants were from the same unit, but were from three different squads. Volunteers from each squad were randomly assigned to one of two groups. The randomization procedure involved that each volunteer from the same squad to be alternatively assigned to each group. […] The first group (BA; age 19.6±0.5 years; height: 1.76±0.05 m; body mass: 72.1±4.5 kg) consumed 6.0 g of β-alanine per day, while the second group (PL; age 20.2±1.0 years; height: 1.79±0.08; body mass: 76.4±6.1 kg) consumed 6 g of placebo (rice flour). During the 30-day study period all participants from all squads participated in the same advanced military training tasks that included combat skill development, physical work under pressure, navigational training, self-defense/hand-to-hand combat and conditioning.
as §3
(§5) These tests simulated a rapid approach to the battlefield. […] During the run and sprint all participants were dressed in shorts, T-shirt and running shoes. Both the run and sprint were performed on an asphalt road. All participants were provided with an individual global positioning system (GPS) that they wore in a vest underneath their shirt. The GPS unit (MinimaxX, V4.3, Catapult Innovations, Victoria, Australia) was positioned in a posterior pocket on the vest situated between the participant's right and left scapula in the upper-thoracic spine region. Information on velocity patterns was recorded during the 2.5 run, as well as total distance run during the 1-min sprint. During the 2.5 km run the velocity of the run was divided into three operationally distinct thresholds and defined as low speed (2.50 m˜s^−1-3.60 m˜s^−1), moderate speed (3.61 m·s^−1-4.43 m·s^−1) or high speed (>4.44 m·sec^−1). In addition, the average velocity and average heart rate during the 2.5 km run were also downloaded from the GPS receiver/transmitters.
as §2, with “of (2” for “of 2”, “per serving)” for “per serving”, “powder. Participants were instructed to consume the supplement following their meals with water.” for “powder.”, “occurred every day” for “occurred”, “a 30-day” for “a 28 day”

[6] = Text: as §1
Targets were set at a 40-m distance from the firing line and were all headshots. Each shot that hit the target was considered accurate. Twenty targets were set up on the range. All participants were notified prior to the start of data collection which target they were required to shoot at. Immediately following the 120-m sprint, participants continued onto the shooting range and shot 5 times while standing and 5 times from a kneeling position with their assault rifle. Participants were requested to shoot rapidly and accurately. While shooting, each participant was required to handle a misfire in their weapon. The misfire was prearranged by the investigative team, which involved placing an empty bullet into weapon's magazine (weapon's ammunition storage and feeding device). This required the participant to recognize and correct the misfire and continue to deliver fire at the designated target. The designed misfire was set to increase the stress of the shooting, with the participants already fatigued from the 4 km run, jumps and sprint with full gear. The number of accurate shots and the time required to perform these shots was recorded.
as §2

[7] = 30 days, 6 g per day, sustained-release tablets
Text: as §4
Participants in the supplement group were provided with 2 tablets of sustained-release β-alanine at a dose of (2 g per serving) three times per day (total β-alanine intake was 6 g per day) and subjects in the placebo group were provided with an equivalent amount of rice powder. […]

[8] = Pre to Post; p=0.844, ES=0.003
Text: as §1, §2

[9] = four weeks of ingestion, dosages similar to the present one (Hill et al., 2007); cited from earlier work
[10] = 1-min Sprint
Protocol: as §3, §5
During the 1-min sprint peak velocity, average velocity, total distance, total distance within 90% of peak velocity, and percent decline was downloaded from the GPS receiver/transmitters. All data were collected at 10 Hz and all analyses were performed with the system software provided by the manufacturer.
as §2, with “of (2” for “of 2”, “per serving)” for “per serving”, “powder. Participants were instructed to consume the supplement following their meals with water.” for “powder.”, “occurred every day” for “occurred”, “a 30-day” for “a 28 day”

[11] = β-alanine taken as a free amino acid; some individuals; cited from earlier work
[12] = 4-km run, POST (28 days, 6 g per day)

NCCC(=O)O [BA, β-alanine]
% Distance run at High Running Velocity ([1]; 4-km run, POST): 25.4 ± 18.0%
% Distance run at Low to Moderate Running Velocity ([1]; 4-km run, POST): 74.3 ± 18.3%
Average Velocity [1, 12]: 4.13 ± 0.27 m · sec^−1
Peak Velocity [1, 12]: 5.46 ± 0.26 m · sec^−1
% Distance run at High Running Velocity ([1]; 4-km run, PRE): 29.3 ± 16.1%
% Distance run at Low to Moderate Running Velocity ([1]; 4-km run, PRE): 70.8 ± 16.2%
Average Velocity ([1]; 4-km run, PRE): 4.25 ± 0.22 m · sec^−1
Peak Velocity ([1]; 4-km run, PRE (before supplementation), mean ± SD): 5.84 ± 0.63 m · sec^−1
difference between BA and PL in the distance run at a high velocity ([1]; 4-km run, Post, not statistically significant): 34.9%
High Running Velocity (>4.4 m · sec^−1) ([1]; 4-km run, POST): 1009 ± 675
High Running Velocity (>4.4 m · sec^−1) ([1]; 4-km run, PRE): 1166 ± 610
Low-Moderate Running Velocity (<4.4 m · sec^−1) ([1]; 4-km run, POST): 2957 ± 672
Low-Moderate Running Velocity (<4.4 m · sec^−1) ([1]; 4-km run, PRE): 2811 ± 605
4K Run Time ([1]; POST): 962.6 ± 65.0 s
4K Run Time ([1]; PRE): 942.4 ± 39.3 s
Δ carnosine content within the gastrocnemius muscle vs PL [2]: Significant elevations
vertical jump relative mean power [3]: 14.1±1.7 w·kg-1
vertical jump relative peak power vs PL ([3]; p=0.034, ES=0.27): significantly greater
relative mean power, percent greater than PL ([3]; p=0.139, ES 0.14): 10.2%
Δ time for the 50-m casualty carry vs PL ([4]; 30 days, 6 g per day, p=0.044): significantly (p=0.044) improved
serial subtraction test under stress vs placebo ([4]; 30 days, p=0.022): significantly improve performance
Average Sprint Time ([4]; POST): 8.00 ± 0.29 s
Fatigue rate ([4]; POST): 91.8 ± 3.0%
Average Sprint Time ([4]; PRE): 7.42 ± 0.24 s
Fatigue rate ([4]; PRE): 91.6 ± 4.8%
Average Heart Rate ([5]; POST): 165.7 ± 6.1 beats · min^−1
Average Velocity ([5]; POST): 4.09 ± 0.25 m · s^−1
Distance Run at High Intensity ([5]; POST): 23.9 ± 20.1%
Distance Run at Low Intensity ([5]; POST): 10.7 ± 14.0%
Distance Run at Moderate Intensity ([5]; POST): 65.1 ± 14.8%
Time ([5]; POST (30 days, 6 g per day)): 629 ± 23.8 s
Average Heart Rate ([5]; PRE): 156.8 ± 15.5 beats · min^−1
Average Velocity ([5]; PRE): 3.97 ± 0.17 m · s^−1
Distance Run at High Intensity ([5]; PRE): 18.4 ± 12.4%
Distance Run at Low Intensity ([5]; PRE): 12.3 ± 12.0%
Distance Run at Moderate Intensity ([5]; PRE): 69.8 ± 12.1%
Time ([5]; PRE): 624 ± 22.6 s
difference between the groups in time to perform 10 shots ([6]; BA faster than PL, not statistically different): 24.8%
time to perform 10 shots ([6]; Post, PL 37.7±13.9 sec, p=0.161): 30.2 ± 5.8 s
number of shots on target ([6]; at Post, of 10 shots, 40-m targets, p=0.012 vs PL): 8.2±1.0
adverse events [7]: No adverse events were reported
serial subtraction test, BA vs PL [8]: no significant interactions
elevation of muscle carnosine concentrations [9]: 60%
Average Velocity ([10]; POST): 5.09 ± 0.36 m · s^−1
Distance Run at 90% Peak Velocity ([10]; POST): 58.5 ± 7.7
Fatigue rate ([10]; POST): 30.9 ± 6.7%
Peak Velocity ([10]; POST): 6.57 ± 0.18 m · s^−1
total distance run ([10]; POST): 302.4±21.2 m
Average Velocity ([10]; PRE): 5.21 ± 0.28 m · s^−1
Distance Run at 90% Peak Velocity ([10]; PRE): 69.5 ± 4.1
Fatigue rate ([10]; PRE): 32.5 ± 5.5%
Peak Velocity ([10]; PRE): 6.68 ± 0.36 m · s^−1
total distance run ([10]; PRE): 310.0±16.7 m
duration of flushing/tingling of the skin [11]: less than 60 minutes
